Source: publication PMC9501633, “Synthesis, Characterisation and Mechanism of Action of Anticancer 3-Fluoroazetidin-2-ones” (Pharmaceuticals, 2022)

Key:
Experiment in all cases: AlamarBlue cell viability assay
Format in all cases: cell-based
[1] = test system: MCF-7 human breast cancer cells; conditions: Homo sapiens, MCF7, 72 h
Experimental: The antiproliferative potential of the synthesised 3-fluoro β-lactams 26–35 and 3,3-difluoro β-lactams 36–45 was evaluated in MCF-7 human breast cancer cells using the AlamarBlue assay, with CA-4 as reference compound (Figure 3). […] The results for the preliminary in vitro antiproliferative screen for 3-fluoro β-lactam compounds (26–29), which contain different substituents at the para position in the B ring, are presented in Figure 3A.
Cells were seeded at a density of 5 × 10^3 cells/well (MCF-7 and MDA-MB-231) and 1 × 10^4 cells/well (HEK-293T) in 96-well plates (200 μL per well). After 24 h, cells were then treated with medium alone, with vehicle (1% ethanol (v/v)) or with CA-4 or β-lactam compounds at 1 μM and 10 μM concentrations. […] Cell proliferation for MCF-7 cells was analysed with the AlamarBlue assay (Invitrogen Corp.) as previously described by us. After 72 h, AlamarBlue (10% (v/v)) was added to each well, and plates were incubated for 3–5 h at 37 °C in the dark. Fluorescence results were obtained with a 96-well fluorimeter with excitation at 530 nm and emission at 590 nm with results recorded as percentage viability relative to vehicle control (100%). Dose–response curves were obtained and IC50 values (concentration of drug resulting in 50% reduction in cell survival) were calculated using Prism (GraphPad Software, Inc., La Jolla, CA, USA).
Figure 3 Preliminary cell viability data for 3-fluoro and 3,3-difluoro β-lactam compounds. (A) 3-Fluoro β-lactam compounds containing different para-substituent ring B 26–29; 3-fluoro β-lactam compounds containing different meta-substituent ring B 30, 32–35; (B) 3-difluoro β-lactam compounds containing different para-substituent ring B 36–39; 3-difluoro β-lactam compounds containing different meta-substituent ring B 40, 42–45 in MCF-7 breast cancer cells. Cell proliferation of MCF-7 cells was determined with an AlamarBlue assay (seeding density […] for 96-well plates). Compound concentrations of either 10 μM or 1 μM for 72 h were used to treat the cells with control wells containing vehicle ethanol (1% v/v) and CA-4 (10 μM and 1 μM). The mean value for three experiments is shown with the ± S.E.M. for three independent experiments.

Hs578T cells = conditions: Homo sapiens, Hs-578T
Experimental: (§1) The potent 3-fluoro-β-lactam compound 33 synthesised was also evaluated in the triple-negative MDA-MB-231 cell line which lacks expression of the estrogen and progesterone receptors (ER/PR) and the HER2 receptor. […]. Compound 32 was also evaluated in the triple-negative breast cancer cell line Hs578T and its isogenic subclone Hs578T(i)8 (Figure 4C). Hs578Ts(i)8 cells have 2.5-fold more migratory capacity and 3-fold more invasive capacity through the extracellular matrix than the parental cell line (Hs578T) and have 30% more CD44+/CD24-/low cells and in vivo proliferation. […]. The human breast carcinoma cell lines MCF-7 and MDA-MB-231 were purchased from the European Collection of Animal Cell Cultures (ECACC, Salisbury, UK). The SW-480 cells were a kind gift from Dr. Brian Flood, School of Biochemistry and Immunology, Trinity College Dublin. The human breast tumour cell line MCF-7 was cultured in Eagles minimum essential medium with 10% foetal bovine serum, 2 mM L-glutamine and 100 μg/mL penicillin/streptomycin. The medium was supplemented with 1% non-essential amino acids. The human breast tumour cell line MDA-MB-231 cells were maintained in Dulbecco’s modified Eagle’s medium (DMEM) with the addition of penicillin/streptomycin (100 µg/mL), 10% (v/v) foetal bovine serum and 2 mM L-glutamine (complete medium). Breast cancer cell line Hs578T and its isogenic subclone Hs578T(i)8 were a kind gift from Dr. Susan McDonnell, School of Chemical and Bioprocess Engineering, University College Dublin. SW-480 cells, triple-negative breast cancer Hs578T cells and invasive variant Hs578T8i cells were cultured in DMEM with GlutaMAX-I, with the same supplement in the absence of non-essential amino acids. HEK-293T cells (normal epithelial embryonic kidney cells) were cultured in DMEM with GlutaMAX-I in the absence of non-essential amino acids. The SW-480 cells were cultured in DMEM with GlutaMAX-I, with the same supplement in the absence of non-essential amino acids. All media contained 100 U/mL penicillin and 100 μg/mL streptomycin. The cells were seeded into pre-warmed complete medium (10 × 10^4 cells/mL) and maintained at a cell density of 2–19 × 10^5 cells /mL by the addition of fresh media. The cell number was monitored using a haemocytometer. Cells were maintained at 37 °C in 5% CO2 in a humidified incubator. […]
(§2) Figure 4 Antiproliferative activity of 3-fluoro β-lactams on MCF-7, MDA-MB-231, Hs578T and Hs578T isogenic subclone Hs578T(i)8 breast cancer cells and non-tumourigenic HEK-293T cells. […] Cell viability was expressed as a percentage of vehicle control (ethanol 1% (v/v))-treated cells. […] Cell viability was expressed as a percentage of vehicle control (ethanol 1% (v/v))-treated cells and was measured by AlamarBlue assay (average of three independent experiments). […]

Hs578Ts(i)8 cells = test system: Hs578Ts(i)8 cells
Experimental: as §1, §2

`COc1ccc(C2C(F)C(=O)N2c2cc(OC)c(OC)c(OC)c2)cc1O` (stereo not shown) [Compound 32, 3-Fluoro-4-(3-hydroxy-4-methoxyphenyl)-1-(3,4,5-trimethoxyphenyl)azetidin-2-one] gave a viability at 1 µM ([1]; MCF-7, 1 μM, 72 h, read-out: viable cells remaining) of 30%, an IC50 ([1]; MCF-7, 72 h) of 75 nM and an IC50 (Hs578T cells) of 33 nM. For the same compound, the IC50 (Hs578Ts(i)8 cells) was 65 nM.
